Measurements: paper PMC8952364, “Polyphenols as Inhibitors of Antibiotic Resistant Bacteria—Mechanisms Underlying Rutin Interference with Bacterial Virulence” (Pharmaceuticals, 2022)
≈ marks a conversion by molar mass, not a printed value. Like-named read-outs stand apart in the source and are kept apart here.

Legend:
[1] = system: Methicillin resistant S. aureus IBRS MRSA 011; assay: Antimicrobial microdilution assay (MIC/MBC); assay type: cell-based, Staphylococcus aureus; details: for MIC: 37 °C, 24 h; for MBC: subcultivation, 24 h at 37 °C
Description: (§1) The bacterial suspension (0.5 Mc Farland) was prepared, and twenty-fold dilutions of these suspensions were mixed in a 1:10 ratio with the corresponding polyphenol dilution (0.0039–1 mg/mL). Microtiter plates were incubated at 37 °C for 24 h. The lowest concentrations without visible growth (under a binocular microscope) were defined as MICs. The bactericidal concentrations (MBCs) were determined by serial subcultivation of 2 μL of the well’s content and further incubation for 24 h at 37 °C. Streptomycin (SigmaAldrich, Darmstadt, Germany) was used as a positive control. The polyphenols were obtained from Extrasynthese, Rhone, France (rutin, isoquercitrin) and SigmaAldrich, Germany (hesperetin, hesperidin, naringenin, naringin, taxifolin, morin, chlorogenic acid, ferulic acid, p-coumaric acid, and gallic acid). The stock compounds were prepared in ethanol (30%), and adequate ethanol concentrations were used as the negative control in the assays. Experiments were done in triplicate.

P. aeruginosa IBRS P001 = assay: Antimicrobial microdilution assay (MIC/MBC); assay type: cell-based, Pseudomonas aeruginosa; details: for MIC: 37 °C, 24 h; for MBC: subcultivation, 24 h at 37 °C
Description: as §1

P. aeruginosa MMA83 = assay: Antimicrobial microdilution assay (MIC/MBC); assay type: cell-based, Pseudomonas aeruginosa; details: for MIC: 37 °C, 24 h; for MBC: subcultivation, 24 h at 37 °C
Description: as §1

E. coli IBRS E003 = assay: Antimicrobial microdilution assay (MIC/MBC); assay type: cell-based, Escherichia coli; details: for MIC: 37 °C, 24 h; for MBC: subcultivation, 24 h at 37 °C
Description: as §1

E. coli IMD989 = assay: Antimicrobial microdilution assay (MIC/MBC); assay type: cell-based, Escherichia coli; details: for MIC: 37 °C, 24 h; for MBC: subcultivation, 24 h at 37 °C
Description: as §1

A. baumannii 6077/12 = assay: Antimicrobial microdilution assay (MIC/MBC); assay type: cell-based, Acinetobacter baumannii; details: for MIC: 37 °C, 24 h; for MBC: subcultivation, 24 h at 37 °C
Description: as §1

A. baumannii S2/2 = assay: Antimicrobial microdilution assay (MIC/MBC); assay type: cell-based, Acinetobacter baumannii; details: for MIC: 37 °C, 24 h; for MBC: subcultivation, 24 h at 37 °C
Description: as §1

K. pneumoniae IT977 = assay: Antimicrobial microdilution assay (MIC/MBC); assay type: cell-based, Klebsiella pneumoniae; details: for MIC: 37 °C, 24 h; for MBC: subcultivation, 24 h at 37 °C
Description: as §1

K. pneumoniae Ni9 = assay: Antimicrobial microdilution assay (MIC/MBC); assay type: cell-based, Klebsiella pneumoniae; details: for MIC: 37 °C, 24 h; for MBC: subcultivation, 24 h at 37 °C
Description: as §1

A. xylosoxidans 37F = assay: Antimicrobial microdilution assay (MIC/MBC); assay type: cell-based, Achromobacter xylosoxidans; details: for MIC: 37 °C, 24 h; for MBC: subcultivation, 24 h at 37 °C
Description: as §1

S. infantis 1371/1 = assay: Antimicrobial microdilution assay (MIC/MBC); assay type: cell-based, Salmonella Infantis; details: for MIC: 37 °C, 24 h; for MBC: subcultivation, 24 h at 37 °C
Description: as §1

[2] = system: P. aeruginosa IBRS P001 biofilm; assay: Crystal violet antibiofilm assay (biofilm formation); assay type: cell-based, Pseudomonas aeruginosa; details: MIC and sub-MIC, 24 h, crystal violet, Figure 1
Description: After incubation, each well was washed twice with sterile PBS (phosphate-buffered saline, pH 7.4) and fixed with methanol for 10 min. After removal of methanol the plate was air-dried. The biofilm was stained with 0.1% crystal violet (Bio-Merieux, Marcy l’Etoile, France) for 30 min. The plate was washed with water, air dried, and the stain was dissolved with 200 μL of 96% ethanol (Zorka, Sabac, Serbia). The absorbance was read at 620 nm on a Multiskan™ FC microplate photometer (Thermo Scientific™, Waltham, MA, USA). The results are presented as biofilm forming capacity (%) compared to control.

HaCaT cells = assay: Cytotoxicity in HaCaT cell line (crystal violet assay); assay type: cell-based, human
Description: For determination of the polyphenols’ cytotoxic effect, a crystal violet assay was used, with modifications. The cytotoxic effect of polyphenols was analyzed on spontaneously immortalized human skin keratinocytes (HaCaT, AddexBio No. T0020001, San Diego, CA, USA) cell lines. […] Cells (1 × 10^4 cells/well) were seeded in a 96-well plate (Sarstedt, Nümbrecht, Germany) 24 h before treatment. […] Cells were incubated with the compounds for 24 h. […] After crystal violet was removed, the plates were washed in a stream of tap water and left to air-dry at room temperature for 24 h. The absorbance was measured in a microplate reader (Multiskan™ FC Microplate Photometer, Thermo Scientific™) at 590 nm. The results were expressed as IC50 value in μg/mL. The criterion used to categorize the cytotoxic activity polyphenols was as follows: […] All analyses were performed in triplicate; each replicate was also quantified three times. Data were expressed as mean standard deviation, where applicable.

[3] = system: eleven antibiotic resistant strains of bacteria; assay: Antimicrobial assay, summary over the examined strains; assay type: cell-based; details: summary of Table 1
Description: as §1

[4] = system: E. coli (0157:H7 ATCC 51659); design: method as in PMID 34073447; details: cited from earlier work
S. aureus (ATCC 25923) = system: S. aureus (ATCC 25923); design: method as in PMID 34073447; details: cited from earlier work
[5] = system: P. aeruginosa (NRRLB-272); design: method as in PMID 34073447; details: cited from earlier work
[6] = system: Escherichia coli K-12 MG1655, Salmonella enterica serovar Typhimurium LT2, and Pseudomonas putida ATCC 795; design: method as in PMID 18045389; details: cited from earlier work

Q: Which MIC [1] does the source give for `COc1ccc([C@@H]2CC(=O)c3c(O)cc(O[C@@H]4O[C@H](CO[C@@H]5O[C@@H](C)[C@H](O)[C@@H](O)[C@H]5O)[C@@H](O)[C@H](O)[C@H]4O)cc3O2)cc1O` [Hesperidin, hesperidin] here?
A: 500 µg/mL (≈ 819 µM)

Q: And the MBC [1]?
A: 1000 µg/mL (≈ 1640 µM)

Q: And the MIC (P. aeruginosa IBRS P001)?
A: 500 µg/mL (≈ 819 µM)

Q: And the MBC (P. aeruginosa IBRS P001)?
A: 1000 µg/mL (≈ 1640 µM)

Q: And the MIC (P. aeruginosa MMA83)?
A: 1000 µg/mL (≈ 1640 µM)

Q: What about the MBC (P. aeruginosa MMA83) of the same compound?
A: 1000 µg/mL (≈ 1640 µM)

Q: What about the MIC (E. coli IBRS E003) of the same compound?
A: >1000 µg/mL

Q: What about the MBC (E. coli IBRS E003) of the same compound?
A: >1000 µg/mL

Q: And the MIC (E. coli IMD989)?
A: >1000 µg/mL

Q: What about the MBC (E. coli IMD989) of the same compound?
A: >1000 µg/mL

Q: What about the MIC (A. baumannii 6077/12) of the same compound?
A: 500 µg/mL (≈ 819 µM)

Q: And the MBC (A. baumannii 6077/12)?
A: 500 µg/mL (≈ 819 µM)

Q: What about the MIC (A. baumannii S2/2) of the same compound?
A: 500 µg/mL (≈ 819 µM)

Q: What about the MBC (A. baumannii S2/2) of the same compound?
A: 500 µg/mL (≈ 819 µM)

Q: And the MIC (K. pneumoniae IT977)?
A: 1000 µg/mL (≈ 1640 µM)

Q: What about the MBC (K. pneumoniae IT977) of the same compound?
A: 1000 µg/mL (≈ 1640 µM)

Q: And the MIC (K. pneumoniae Ni9)?
A: 1000 µg/mL (≈ 1640 µM)

Q: What about the MBC (K. pneumoniae Ni9) of the same compound?
A: 1000 µg/mL (≈ 1640 µM)

Q: What about the MIC (A. xylosoxidans 37F) of the same compound?
A: 1000 µg/mL (≈ 1640 µM)

Q: What about the MBC (A. xylosoxidans 37F) of the same compound?
A: 1000 µg/mL (≈ 1640 µM)

Q: And the MIC (S. infantis 1371/1)?
A: >1000 µg/mL

Q: What about the MBC (S. infantis 1371/1) of the same compound?
A: >1000 µg/mL

Q: And the “reduction of biofilm formation (biomass), in words” value [2]?
A: significant (****, p < 0.0001) reduction

Q: What about the “cytotoxicity towards HaCaT, in words” value (HaCaT cells; HaCaT, 24 h) of the same compound?
A: non-cytotoxic properties

Q: What about the “IC50 (compound concentration that inhibited 50% of the cell growth)” value (HaCaT cells; HaCaT, 24 h treatment, crystal violet) of the same compound?
A: >1000 µg/mL

Q: And the cytotoxicity category (HaCaT cells; HaCaT, maximal tested concentrations (1 mg/mL))?
A: no cytotoxicity (IC50 > 501 µg/mL = no cytotoxicity)

Q: And the “MIC towards a range of antibiotic-resistant bacterial strains” value [3]?
A: ≥ 500 µg/mL

Q: What about the MIC [4] of the same compound?
A: 1130 µg/mL (≈ 1850 µM)

Q: And the MIC (S. aureus (ATCC 25923))?
A: 1530 µg/mL (≈ 2510 µM)

Q: What about the MIC [5] of the same compound?
A: 1270 µg/mL (≈ 2080 µM)

Q: Which results are given for `COc1ccc([C@@H]2CC(=O)c3c(O)cc(O)cc3O2)cc1O` [Hesperetin, hesperetin]?
A: MIC ([1]; Staphylococcus aureus, MRSA, read-out: MIC): 500 µg/mL (≈ 1650 µM); MBC ([1]; Staphylococcus aureus, MRSA, read-out: MBC): 1000 µg/mL (≈ 3310 µM); MIC (P. aeruginosa IBRS P001; Pseudomonas aeruginosa, IBRSP001, read-out: MIC): 500 µg/mL (≈ 1650 µM); MBC (P. aeruginosa IBRS P001; Pseudomonas aeruginosa, IBRSP001, read-out: MBC): 1000 µg/mL (≈ 3310 µM); MIC (P. aeruginosa MMA83; Pseudomonas aeruginosa, MMA83, read-out: MIC): 1000 µg/mL (≈ 3310 µM); MBC (P. aeruginosa MMA83; Pseudomonas aeruginosa, MMA83, read-out: MBC): 1000 µg/mL (≈ 3310 µM); MIC (E. coli IBRS E003; Escherichia coli, IBRSE003, read-out: MIC): > 1000 µg/mL; MBC (E. coli IBRS E003; Escherichia coli, IBRSE003, read-out: MBC): > 1000 µg/mL; MIC (E. coli IMD989; Escherichia coli, IMD989, read-out: MIC): > 1000 µg/mL; MBC (E. coli IMD989; Escherichia coli, IMD989, read-out: MBC): > 1000 µg/mL; MIC (A. baumannii 6077/12; Acinetobacter baumannii, 6077/12, read-out: MIC): 500 µg/mL (≈ 1650 µM); MBC (A. baumannii 6077/12; Acinetobacter baumannii, 6077/12, read-out: MBC): 500 µg/mL (≈ 1650 µM); MIC (A. baumannii S2/2; Acinetobacter baumannii, S2/2, read-out: MIC): 500 µg/mL (≈ 1650 µM); MBC (A. baumannii S2/2; Acinetobacter baumannii, S2/2, read-out: MBC): 500 µg/mL (≈ 1650 µM); MIC (K. pneumoniae IT977; Klebsiella pneumoniae, IT977, read-out: MIC): > 1000 µg/mL; MBC (K. pneumoniae IT977; Klebsiella pneumoniae, IT977, read-out: MBC): > 1000 µg/mL; MIC (K. pneumoniae Ni9; Klebsiella pneumoniae, NI9, read-out: MIC): 1000 µg/mL (≈ 3310 µM); MBC (K. pneumoniae Ni9; Klebsiella pneumoniae, NI9, read-out: MBC): 1000 µg/mL (≈ 3310 µM); MIC (A. xylosoxidans 37F; Achromobacter xylosoxidans, 37F, read-out: MIC): 1000 µg/mL (≈ 3310 µM); MBC (A. xylosoxidans 37F; Achromobacter xylosoxidans, 37F, read-out: MBC): 1000 µg/mL (≈ 3310 µM); MIC (S. infantis 1371/1; Salmonella enterica, 1371/1, read-out: MIC): > 1000 µg/mL; MBC (S. infantis 1371/1; Salmonella enterica, 1371/1, read-out: MBC): > 1000 µg/mL; reduction of biofilm formation (biomass), in words [2]: significant (****, p < 0.0001) reduction; cytotoxicity towards HaCaT, in words (HaCaT cells): non-cytotoxic properties; IC50 (HaCaT cells; Homo sapiens, HaCaT, 24 h treatment, crystal violet, read-out: IC50 (compound concentration that inhibited 50% of the cell growth)): > 1000 µg/mL; MIC towards a range of antibiotic-resistant bacterial strains [3]: ≥ 500 µg/mL; MIC [6]: ≥ 1000 µg/mL
